Here are results for 7 molecules from US10875829B1, “Azetidine derivatives useful as modulators of cortical catecholaminergic neurotransmission” (Integrative Research Laboratories Sweden AB, priority 2016, dated 2020).

SMILES strings stand for the structures. Counter-ions that a name gives are not always drawn. Marks after values point to notes of the source that are not given here.

For test [1], the system named is human alpha 2A adrenergic receptor and/or the non-selective adrenergic alpha 2 receptor. In words: In vitro binding studies, adrenergic alpha 2 receptors ([3H]RX 821002). The arrangement: species or system human and/or rat. As to conditions: concentration of 10 μM. The procedure:
(The measurement was performed as described in Langin, D., Lafontan, M., Stilling, M. R. and Paris, H. (1989), [3H]RX821002: a new tool for the identification of alpha2A-adrenoceptors, Eur. J. Pharmacol. 167: 95.)
Cell membrane homogenates (48 μg protein) were incubated for 60 min at 22° C. with 1 nM [3H]RX 821002 in the absence or presence of the test compound in a buffer containing 50 mM Tris-HCl (pH 7.4), 2 mM MgCl2 and 1 mM EDTA. Nonspecific binding was determined in the presence of 100 μM (−)epinephrine. Following incubation, the samples were filtered rapidly under vacuum through glass fiber filters (GF/B, Packard) presoaked with 0.3% PEI and rinsed several times with ice-cold 50 mM Tris-HCl using a 96-sample cell harvester (Unifilter, Packard). The filters were dried then counted for radioactivity in a scintillation counter (Topcount, Packard) using a scintillation cocktail (Microscint 0, Packard).
The results are expressed as a percent inhibition of the control radioligand specific binding.
(antagonist radioligand). Membrane homogenates (rat) of cerebral cortex (160 μg protein) were incubated for 60 min at 22° C. with 0.5 nM [3H]RX 821002 in the absence or presence of the test compound in a buffer containing 50 mM Tris-HCl (pH 7.4), 2 mM MgCl2 and 1 mM EDTA. Nonspecific binding was determined in the presence of 100 μM (−)epinephrine. Following incubation, the samples were filtered rapidly under vacuum through glass fiber filters (GF/B, Packard) presoaked with 0.3% PEI and rinsed several times with ice-cold 50 mM Tris-HCl using a 96-sample cell harvester (Unifilter, Packard). The filters were dried then counted for radioactivity in a scintillation counter (Topcount, Packard) using a scintillation cocktail (Microscint 0, Packard). The results are expressed as a percent inhibition of the control radioligand specific binding. The standard reference compound was yohimbine, which was tested in each experiment at several concentrations to obtain a competition curve from which its IC50 was calculated.

The subject of the next test is Arc mRNA. Kind of test: m-RNA analysis: tissue levels of Arc in brain regions. The format is in vivo, rats. To be noted: 33 μmol/kg s.c., 65 min before sacrifice, control saline, n=5. On the procedure: Sesack et al. (Anatom Substr Glut-Dopamine Inter. Annals of NY AcadSci, 2003, 1003; 36-52) discloses that the dopaminergic systems of the brain interact strongly with central glutamate neurotransmission. To investigate potential effects of compounds as disclosed herein on cortical and striatal NMDA type glutamate receptor related synaptic signaling, Arc mRNA induction was assessed upon acute administration. Arc (Arc/Arg3.1-activity regulated cytoskeleton-associated protein/activity-regulated gene 3.1; (Link W et al., Proc Natl Acad Sci, USA, 1995, 92; 5734-8 and Lyford G L et al., Neuron, 1995, 14; 433-45), is an immediate early gene (IEG), induced by synaptic activity, whose expression and localization at synaptic sites is triggered specifically by NMDA receptor activation and strongly related to neural plasticity (Steward and Worley, Neuron, 2001, 30; 227-40, Kawashima et al., PNAS, 2009, 106(1); 316-21 and Bramham et al., Exp Brain Res, 2010, 200; 125-40).
Animals were killed 60 min after the injection of the drugs by decapitation and the brains were dissected into […] different areas: Limbic system (containing nucleus accumbens, most parts of the olfactory tubercle, ventral pallidum), striatum, frontal cortex, hippocampus and the remaining cortex.
Total RNA was prepared by the guanidin isothiocyanate method (Chomczynski P and Sacchi N, Anal Biochem, 1987, 162(1); 156-9). RNA pellets were solved in RNAse-free water and stored at −80° C. The sample concentration was determined spectrophotometrically by a NanoDrop ND1000 (Saveen Werner). A quality indicator number and an integrity number of r-RNA were measured with an Experion (Bio-rad).
A two-step reversed transcription was performed by using a SuperScript III kit (Invitrogen). 1 μg of total RNA was reverse transcribed with 5 μl 2XRT Reaction Mix, 1 μl RT Enzyme Mix, in a total volume adjusted to 10 μl with DEPC-treated water. 1 U of E. coli RNase H was added. c-DNA was diluted 40 times and stored at −20° C.
Three sequences (one gene of interest and two reference genes) were amplified together in a triplex PCR-reaction. For real-time PCR measurements: 5 μl of c-DNA reaction was amplified in a 20 μl reaction mixture containing 10 μl PerfeCta Multiplex qPCR Supermix (Quanta, VWR), 3.5 μl RNAse-free water, 0.15 μM of each primer and 0.1 μM of each probe. Real-time PCR was measured on CFX96 (Bio-rad) using the following settings for all genes: 3 min pre-incubation at 95° C. followed by 40 cycles of denaturation at 95° C. for 15 s, annealing and elongation at 60° C. for 1 minute.
Reference genes are HPRT and cyclophilin.
Compounds and saline solution (control) as indicated above were administered s.c. 65 min before sacrificing the animals. Results are presented as percent of control means±SEM. Statistical significance was assessed using Student's t-test (2 tailed) vs controls. * denotes p<0.05, ** p<0.01, n=5, *** p<0.001, n=5.
Correct PCR products are confirmed by agarose gel electrophoresis (2%) PCR products are purified with PCR purification kit from Qiagen (Valencia, Calif., USA). All genes are sequenced at MWG, Germany. The amounts of gene of interests are normalized with the two reference genes HPRT and cyclophilin A with the equation delta-delta CT.

Another test relates to SERT, NET and/or DAT. In words: Radioligand binding assays at the monoamine transporters, general statements. Also noted: species or system human. To be noted: concentration of each tested compound 10 μM. An excerpt: A serotonin-norepinephrine-dopamine reuptake inhibitor (SNDRI), also known as a triple reuptake inhibitor (TRI), is a type of drug that acts as a combined reuptake inhibitor of the monoamine neurotransmitters serotonin, norepinephrine, and dopamine. It does this by concomitantly inhibiting the serotonin transporter (SERT), norepinephrine transporter (NET), and dopamine transporter (DAT), respectively. Inhibition of the reuptake of these neurotransmitters increases their extracellular concentrations and, therefore, results in an increase in serotonergic, adrenergic, and dopaminergic neurotransmission across the brain. However, the use of triple re-uptake inhibitors (especially the inhibition of DAT) in humans are of potential concern due to abuse liability. Cocaine is the most well-known triple-uptake inhibitor and is widely encountered as a drug of abuse. […] One assay to measure affinity of said compounds as described herein may be the percent inhibition from radioligand binding assay using cells expressing human transporters and receptors (Table 5), wherein the concentration of each tested compound in such assay is 10 μM. Alternatively other assays known to the skilled person may be used to measure the affinity of said compounds, wherein the concentration of each tested compound in such assay is 10 μM.
Each compound was tested in a single concentration at 1.0 E-5 M and in duplicate. […]

In the case of `Fc1cccc(OC2CNC2)c1F` [Example 1A, 3-(2,3-difluorophenoxy)azetidine hydrochloric acid salt], in test [1], the “inhibition of the binding of a radioactively labeled ligand” value was “more than 93%”. Besides, in the test on Arc mRNA, the “Arc frontal cortex ± SEM” value is recorded as 236 ± 9*** % of control means and the “Arc striatum ± SEM” value is 149 ± 11* % of control means.

With `Fc1cc(F)c(F)c(OC2CNC2)c1` [Example 2, 3-(2,3,5-trifluorophenoxy)azetidine hydrochloric acid salt], in the test on Arc mRNA, the “Arc frontal cortex ± SEM” value was 96 ± 20 % of control means and the “Arc striatum ± SEM” value was 104 ± 12 % of control means.

For the molecule `Fc1cc(F)c(F)c(OC2CNC2)c1F` [Example 3, 3-(2,3,5,6-tetrafluorophenoxy)-azetidine hydrochloric acid salt], in test [1], the “inhibition of the binding of a radioactively labeled ligand” value is given as “more than 93%”. Moreover, in the test on Arc mRNA, the “Arc frontal cortex ± SEM” value is 149 ± 11** % of control means and the “Arc striatum ± SEM” value was 141 ± 9.0** % of control means.

With `Fc1ccc(F)c(OC2CNC2)c1F` [Example 20, 3-(2,3,6-trifluorophenoxy)azetidine hydrochloric acid salt], in test [1], the “inhibition of the binding of a radioactively labeled ligand” value was “more than 93%”.

In the case of `Fc1cc(F)cc(OC2CNC2)c1.O=C(O)C(O)C(O)C(=O)O` [Example 52B, 3-(3,5-difluorophenoxy)azetidine (+)-tartaric acid salt], in the test on Arc mRNA, the “Arc frontal cortex ± SEM” value was 148 ± 6.9** % of control means and the “Arc striatum ± SEM” value is on record as 106 ± 7.1 % of control means.

Take `Fc1cc(F)cc(OC2CNC2)c1` [Example 52C, 3-(3,5-difluorophenoxy)azetidine hydrochloric acid salt]: the “inhibition of the binding of a radioactively labeled ligand” value in test [1] is listed as “more than 93%”.

With `Clc1ccc(OC2CNC2)cc1Cl` [Reference Compound, 3-(3,4-dichlorophenoxy)azetidine hydrochloric acid salt, reference compound], the “affinity to SERT, NET and/or DAT (percent inhibition)” value in the test with SERT, NET and/or DAT is “higher than 75%”.
